Target: STING (Homo sapiens, UniProt Q86WV6, G230A/H232R/R293Q/R71H)
Experiment: STING reporter assay: THP1-Dual KO-IFNAR2 cells stimulated with 2′3′cGAMP, luciferase reporter activity
Type: cell-based
Conditions: 15 μM 2′3′cGAMP, 24h
Method: STING pathway activation by the compounds described herein were measured using THP1-Dual™ cells (KO-IFNAR2).
THP1-Dual™ KO-IFNAR2 Cells (obtained from invivogen) were maintained in RPMI, 10% FCS, 5 ml P/S, 2 mM L-glut, 10 mM Hepes, and 1 mM sodium pyruvate. Compounds were spotted in empty 384 well tissue culture plates (Greiner 781182) by Echo for a final concentration of 0.0017-100 μM. Cells were plated into the TC plates at 40 μL per well, 2×10E6 cells/mL. For activation with STING ligand, 2′3′cGAMP (MW 718.38, obtained from Invivogen), was prepared in Optimem media.
The following solutions were prepared for each 1×384 plate: • Solution A: 2 mL Optimem with one of the following stimuli: • 60 uL of 10 mM 2′3′cGAMP ->150 μM stock • Solution B: 2 mL Optimem with 60 μL Lipofectamine 2000->Incubate 5 min at RT
2 mL of solution A and 2 ml Solution B was mixed and incubated for 20 min at room temperature (RT). 20 uL of transfection solution (A+B) was added on top of the plated cells, with a final 2′3′cGAMP concentration of 15 μM. The plates were then centrifuged immediately at 340 g for 1 minute, after which they were incubated at 37° C., 5% CO2, >98% humidity for 24h. Luciferase reporter activity was then measured. EC50 values were calculated by using standard methods known in the art.
Luciferase reporter assay: 10 μL of supernatant from the assay was transferred to white 384-plate with flat bottom and squared wells. One pouch of QUANTI-Luc™ Plus was dissolved in 25 mL of water. 100 μL of QLC Stabilizer per 25 mL of QUANTI-Luc™ Plus solution was added. 50 μL of QUANTI-Luc™ Plus/QLC solution per well is then added. Luminescence is measured on a Platereader (e.g., Spectramax I3X (Molecular Devices GF3637001)).
Luciferase reporter activity was then measured. EC50 values were calculated by using standard methods known in the art.

Sequence of STING (Q86WV6 whole entry R71H/G230A/H232R/R293Q): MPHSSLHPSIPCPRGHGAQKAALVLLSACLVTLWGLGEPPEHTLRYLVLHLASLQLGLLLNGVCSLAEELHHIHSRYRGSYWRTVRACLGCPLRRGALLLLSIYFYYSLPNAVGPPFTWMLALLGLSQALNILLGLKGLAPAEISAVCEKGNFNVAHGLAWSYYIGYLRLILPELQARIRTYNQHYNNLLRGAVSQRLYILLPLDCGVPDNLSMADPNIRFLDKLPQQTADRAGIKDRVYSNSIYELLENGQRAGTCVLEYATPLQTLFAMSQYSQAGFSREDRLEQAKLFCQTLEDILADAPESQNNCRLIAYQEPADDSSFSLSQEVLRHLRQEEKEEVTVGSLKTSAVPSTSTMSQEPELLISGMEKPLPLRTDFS

Row | Compound | EC50 (class symbols) [µM] | EC50 (numeric bounds) [µM]
1 | O=C(Nc1ccc2cc[nH]c2c1)N[C@@H]1C[C@H]1c1ccccc1 [Compound 214] | 1 to 5 | –
2 | Cc1cc(NC(=O)Nc2ccc3[nH]ccc3c2)ccc1C#N [Compound 360] | – | > 30
3 | O=C(Nc1cc(Cl)cc(C(F)(F)F)c1)Nc1ccc2cc[nH]c2c1 [Compound 254] | 0.2 to 1 | –
4 | Cn1cc(-c2c[nH]c3ccc(NC(=O)Nc4ccc(C(F)(F)F)cc4)cc23)cn1 [Compound 366] | – | > 30
5 | Cn1cc(-n2cc(C#N)c3ccc(NC(=O)Nc4ccc(C(F)(F)F)cc4)cc32)cn1 [Compound 544] | – | > 30
6 | O=C(NCCOc1cccc(C(F)(F)F)c1)Nc1ccc2cc[nH]c2c1 [Compound 525] | 0.2 to 1 | –
7 | O=C(Nc1ccc(C(F)(F)F)cc1)Nc1cc(C(=O)O)c2cc[nH]c2c1 [Compound 166] | – | > 30
8 | Cc1cccc(CNC(=O)Nc2ccc3cc[nH]c3c2)c1 [Compound 225] | 5 to 100 | –
9 | CCc1ccc2ccc(Nc3ccc4cc[nH]c4c3)nc2c1 [Compound 385] | 1 to 5 | –
10 | CC(NC(=O)Nc1cnc2cc[nH]c2c1)c1cc(Cl)cc(C(F)(F)F)c1 (stereo not drawn) [Compound 506] | 5 to 100 | –
11 | O=C(Nc1ccc2[nH]ccc2c1)Nc1ccccc1Cl [Compound 362] | – | > 30
12 | COc1ccc(Nc2ccc3cc[nH]c3c2)nc1F [Compound 601, N-(6-fluoro-5-methoxypyridin-2-yl)-1H-indol-6-amine] | – | > 30
13 | CC(C)(C)c1ccc(Nc2ccc3cc[nH]c3c2)nc1 [Compound 426, N-(5-(tert-butyl)pyridin-2-yl)-1H-indol-6-amine] | 5 to 100 | –
14 | Cn1cc(-c2c[nH]c3cc(NC(=O)Nc4ccc(C(F)(F)F)cc4)ccc23)cn1 [Compound 545] | – | > 30
15 | O=C(Nc1cccc(OC(F)F)c1)Nc1ccc2cc[nH]c2c1 [Compound 228] | 1 to 5 | –
16 | O=C(NCc1ccc(F)c(F)c1)Nc1ccc2cc[nH]c2c1 [Compound 221] | – | > 30
17 | FC(F)c1ccc2ccc(Nc3ccc4cc[nH]c4c3)nc2c1 [Compound 586, 7-(difluoromethyl)-N-(1H-indol-6-yl)quinolin-2-amine] | 1 to 5 | –

Row | Compound | EC50 (class symbols) [µM] | EC50 (numeric bounds) [µM]
18 | O=C(NCCN1CCC(Cc2ccccc2)CC1)Nc1ccc2cc[nH]c2c1 [Compound 174] | 5 to 100 | –
19 | O=C(NCCc1ccc(OC(F)(F)F)cc1)Nc1ccc2[nH]ccc2c1 [Compound 321] | – | > 30
20 | OCc1cccnc1Nc1ccc2cc[nH]c2c1 [Compound 400, (2-((1H-indol-6-yl)amino)pyridin-3-yl)methanol] | – | > 30
21 | CN(C)Cc1cc(NC(=O)Nc2ccc(C(F)(F)F)cc2)cc2[nH]ccc12 [Compound 546] | 5 to 100 | –
22 | O=C(Nc1ccc2cc[nH]c2c1)Nc1ccno1 [Compound 191] | – | > 30
23 | O=C(Nc1ccc2c(c1)CCC2)Nc1ccc2[nH]ccc2c1 [Compound 359] | – | > 30
24 | O=C(Nc1ccc(N2CCC(F)(F)CC2)nc1)Nc1ccc2cc[nH]c2c1 [Compound 247] | 1 to 5 | –
25 | CCCCCNC(=O)Nc1ccc2[nH]ccc2c1 [Compound 328] | – | > 30
26 | O=C(Nc1ccc2cc[nH]c2c1)Nc1ccc(N2CCC(F)(F)CC2)cn1 [Compound 249] | 1 to 5 | –
27 | Cc1ccccc1CCNC(=O)Nc1ccc2[nH]ccc2c1 [Compound 324] | – | > 30
28 | FC(F)(F)COc1cccc(Nc2ccc3cc[nH]c3c2)n1 [Compound 396, N-(6-(2,2,2-trifluoroethoxy)pyridin-2-yl)-1H-indol-6-amine] | 5 to 100 | –
29 | FC(F)(F)c1cc(Cl)c2ccc(Nc3ccc4cc[nH]c4c3)nc2c1 [Compound 564] | 0.2 to 1 | –
30 | O=C(NCCc1ccccc1Br)Nc1ccc2cc[nH]c2c1 [Compound 184] | – | > 30
31 | c1cc2ccc(Nc3ccc(C4CC4)cn3)cc2[nH]1 [Compound 411, N-(5-cyclopropylpyridin-2-yl)-1H-indol-6-amine] | – | > 30
32 | CC(C)CCNC(=O)Nc1ccc2[nH]ccc2c1 [Compound 329] | – | > 30
33 | CC(=O)n1ccc2ccc(NC(=O)Nc3ccc(C(F)(F)F)cc3)cc21 [Compound 257] | 1 to 5 | –

Reference: patent US20230092163A1, “COMPOUNDS AND COMPOSITIONS FOR TREATING CONDITIONS ASSOCIATED WITH STING ACTIVITY” (IFM Due, Inc., priority 2019, published 2023)
